Assays:
[1] = pH 7.4
[2] = method code SF-AS, from DOI: 10.1016/s0021-9673(01)89522-4
[3] = method code SF, from DOI: 10.1016/j.bmcl.2009.04.053, PMID: 19409782
[4] = method code SF-RC/EN, from DOI: 10.1016/s0022-2275(20)42614-8, PMID: 2280184; conditions: pH 1.0
[5] = not given; remark: listed apart in the source
[6] = method code SF-HPLC, from DOI: 10.1023/a:1011018730459, PMID: 11451042
[7] = method code SF-HPLC, from DOI: 10.3109/14756366.2013.845817, PMID: 24156741
[8] = method code SF-HPLC, from DOI: 10.1016/0378-5173(89)90313-x; conditions: pH 7.4
[9] = method code SF-AS, from DOI: 10.1248/cpb.45.1287, PMID: 9301027
[10] = not given; remark: listed apart in the source
[11] = method code SF-AS, from DOI: 10.1002/jps.2600830406, PMID: 7913964
[12] = not given; remark: listed apart in the source
[13] = method code SF-RC, from DOI: 10.1016/j.nucmedbio.2016.03.005, PMID: 27179748; conditions: pH 7.4
[14] = method code SF-HPLC, from DOI: 10.1016/s0969-8043(00)00269-4, PMID: 11200881; conditions: pH 7.4
[15] = method code SF-HPLC, from DOI: 10.2174/1871523013666141114203105, PMID: 25403255; conditions: pH 7.4
[16] = not given; remark: listed apart in the source

SMILES: COc1cc([N+](=O)[O-])cc(C=CC(=O)N2CCC(n3c(=O)[nH]c4ccccc43)CC2)c1OC
- logD [1]: 3

SMILES: CC12CCC(O)CC1CCC1C2CCC2(C)C(C3=CC(=O)OC3)C(O)CC12O (stereo not drawn)
- logP [2]: 1.76

SMILES: O=[N+]([O-])N=C1N(Cc2ccc(Cl)nc2)CCN1Cc1ccc2c(c1)OCCOCCOCCOCCOCCO2
- logP [3]: -0.55

SMILES: C[C@H](CCC(=O)O)[C@H]1CC[C@H]2[C@@H]3[C@H](O)C[C@@H]4C[C@H](O)CC[C@]4(C)[C@H]3C[C@H](O)[C@]12C
- logD [4]: 2.02

SMILES: COC(=O)C1=C(C)NC(C)=C(C(=O)OCCN2CCN(C(c3ccccc3)c3ccccc3)CC2)C1c1cccc([N+](=O)[O-])c1 (stereo not drawn)
- logP: 5.2

SMILES: CCC1C[C@H]2[C@@H]3CCC4=CC(=O)CC[C@@H]4[C@H]3CC[C@]2(C)[C@H]1C(=O)CF (stereo partly drawn)
- logP [5]: 4.41

SMILES: CCC1C[C@H]2[C@@H]3CCC4=CC(=O)CC[C@@H]4[C@H]3CC[C@]2(C)C1C(=O)CO (stereo partly drawn)
- logP [5]: 4.21

SMILES: CCCCCCCC(=O)OCC1OC(n2cnc3c(NC4CCCC4)ncnc32)C(O)C1O (stereo not drawn)
- logP [6]: 3.91

SMILES: C#CCn1cc(C(=O)NC(C(=O)NC2CCCC2)c2ccccc2)c(=O)c2cc(F)c(Cl)nc21 (stereo not drawn)
- logP [7]: 6.22

SMILES: CN1C=CCC(C(=O)NCC(OC(=O)CCCc2ccc(N(CCCl)CCCl)cc2)c2ccccc2)=C1 (stereo not drawn)
- logD [8]: 2.29

SMILES: CCOCCn1c(CN2CCCN(CCCCn3cccn3)CC2)nc2ccccc21
- logP [9]: 4.61

SMILES: O=C1CC2(CCCC2)CC(=O)N1CCCCN1CCN(c2ccc3ccccc3n2)CC1
- logP [10]: 4.23

SMILES: COC(=O)[C@@H]1C[C@H]2[C@@H]3CCC4=CC(=O)C=C[C@]4(C)[C@@]3(F)[C@@H](O)C[C@]2(C)[C@H]1C(=O)CO
- logP [11]: 1.78

SMILES: O=[N+]([O-])N=C1N(Cc2ccc(Cl)nc2)CCN1Cc1ccc2c(c1)OCCOCCOCCOCCO2
- logP [3]: -0.82

SMILES: C#C[C@@]1(O)[C@@H](F)C[C@H]2[C@@H]3CCc4cc(O)ccc4[C@H]3[C@@H](CC)C[C@@]21C
- logP [12]: 4.12

SMILES: COc1ccc(S(=O)(=O)N(Cc2cn(CCOCCOCCOCCF)nn2)C(C(=O)NO)C(C)C)cc1 (stereo not drawn)
- logD [13]: 0.23

SMILES: COc1ccccc1N1CCN(CCN(C(=O)C2CCCCC2)c2ccccn2)CC1
- logD [14]: 3.1

SMILES: C[C@H](CCC(=O)O)C1CCC2C3C(CC[C@@]21C)[C@@]1(C)CC[C@@H](O)CC1C[C@H]3O (stereo partly drawn)
- logD [4]: 3.28

SMILES: CC12CCC(O)CC1CCC1C2CCC2(C)C(C3=CC(=O)OC3)CCC12O (stereo not drawn)
- logP [2]: 2.64

SMILES: COc1ccc(S(=O)(=O)N(Cc2ccc(OCCOCCOCCOCCOCc3cn(CCF)nn3)cc2)[C@@H](C(=O)NO)C(C)C)cc1
- logD [13]: 1.24

SMILES: Cc1ccc(C(C)C)c(OC(=O)COC(=O)Cc2ccccc2Nc2c(Cl)cccc2Cl)c1
- logD [15]: 5.08

SMILES: O=C(C=Cc1cc([N+](=O)[O-])cc2c1OCO2)N1CCC2(CC1)C(=O)NCN2c1ccccc1
- logD [1]: 3.1

SMILES: CNc1cccc(NC(=O)N[C@@H]2N=C(c3ccccn3)c3ccccc3N(CC(=O)C(C)(C)C)C2=O)c1
- logD [14]: 2.68

SMILES: C[C@H](CN1CCOCC1)C(C(=O)N1CCCC1)(c1ccccc1)c1ccccc1
- logP [16]: 3.61

SMILES: C#CCn1cc(C(=O)NC(c2ccccc2)C(O)C(=O)Nc2ccccc2)c(=O)c2cc(F)c(Cl)nc21 (stereo not drawn)
- logP [7]: 5.55

SMILES: CCOC(=O)C1(c2ccccc2)CCN(CCC(O)c2ccccc2)CC1 (stereo not drawn)
- logP [16]: 4.04

SMILES: O=C1C2C3CCC(CC3)C2C(=O)N1CCCCN1CCN(c2ccc3ccccc3n2)CC1 (stereo not drawn)
- logP [10]: 4.1

SMILES: COC(=O)[C@@H]1C[C@H]2[C@@H]3CCC4=CC(=O)C=C[C@]4(C)[C@H]3[C@@H](O)C[C@]2(C)[C@H]1C(=O)CO
- logP [11]: 1.7

SMILES: CC1CCC(C(C)C)C(OC(=O)COC(=O)Cc2ccccc2Nc2c(Cl)cccc2Cl)C1 (stereo not drawn)
- logD [15]: 5.07

SMILES: CCOC(=O)C1=C(C)NC(C)=C(C(=O)OCC)C1c1ccccc1/C=C/C(=O)OC(C)(C)C
- logP: 4.43

SMILES: CCOCCn1c(N2CCCN(CCCCn3cccn3)CC2)nc2ccccc21
- logP [9]: 3.99

SMILES: COc1cc(C(=O)OCC2OC(n3cnc4c(NC5CCCC5)ncnc43)C(O)C2O)cc(OC)c1OC (stereo not drawn)
- logP [6]: 2.27

SMILES: CN1C=CCC(C(=O)NCCCOC(=O)CCCc2ccc(N(CCCl)CCCl)cc2)=C1
- logD [8]: 2.75
